This is an account of results in ChEMBL document CHEMBL5584266, “Novel selective proline-based peptidomimetics for human cathepsin K inhibition” (Bioorg Med Chem Lett, 2024).

Each structure is given as a SMILES string. Where only a bound is given, the exact number is not on record here.

Test [1] concerns the target Procathepsin L (Homo sapiens, UniProt P07711). The test is described as follows: Binding affinity to human Cathepsin L assessed as inhibition constant.
Test [2] has as its target Cathepsin S (Homo sapiens, UniProt P25774). Nature of the test: Binding affinity to human Cathepsin S assessed as inhibition constant.
Test [3] addresses Cathepsin B (Homo sapiens, UniProt P07858). The test is described as follows: Binding affinity to human Cathepsin B assessed as inhibition constant.
The target in test [4] is T1, Cathepsin K (Homo sapiens, UniProt P43235).
T1 sequence (P43235 whole entry): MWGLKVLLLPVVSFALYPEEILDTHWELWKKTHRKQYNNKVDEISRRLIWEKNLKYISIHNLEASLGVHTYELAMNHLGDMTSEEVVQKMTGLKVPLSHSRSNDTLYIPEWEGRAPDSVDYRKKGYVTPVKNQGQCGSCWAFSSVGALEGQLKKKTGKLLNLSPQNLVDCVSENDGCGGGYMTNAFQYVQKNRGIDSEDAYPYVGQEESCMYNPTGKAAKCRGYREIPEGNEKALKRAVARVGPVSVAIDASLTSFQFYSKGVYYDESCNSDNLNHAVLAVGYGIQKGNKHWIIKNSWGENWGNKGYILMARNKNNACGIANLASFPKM
Nature of the test: Binding affinity to human Cathepsin K assessed as inhibition constant.

Chain of Procathepsin L (P07711 whole entry): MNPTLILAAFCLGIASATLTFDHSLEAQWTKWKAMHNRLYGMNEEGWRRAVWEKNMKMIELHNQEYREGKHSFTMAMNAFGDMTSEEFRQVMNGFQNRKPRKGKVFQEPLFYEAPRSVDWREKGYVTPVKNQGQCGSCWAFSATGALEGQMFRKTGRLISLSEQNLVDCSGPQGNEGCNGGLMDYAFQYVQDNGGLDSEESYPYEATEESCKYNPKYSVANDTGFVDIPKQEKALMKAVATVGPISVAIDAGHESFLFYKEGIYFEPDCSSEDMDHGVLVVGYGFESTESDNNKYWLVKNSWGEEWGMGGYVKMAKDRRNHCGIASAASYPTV
Chain of Cathepsin S (P25774 whole entry): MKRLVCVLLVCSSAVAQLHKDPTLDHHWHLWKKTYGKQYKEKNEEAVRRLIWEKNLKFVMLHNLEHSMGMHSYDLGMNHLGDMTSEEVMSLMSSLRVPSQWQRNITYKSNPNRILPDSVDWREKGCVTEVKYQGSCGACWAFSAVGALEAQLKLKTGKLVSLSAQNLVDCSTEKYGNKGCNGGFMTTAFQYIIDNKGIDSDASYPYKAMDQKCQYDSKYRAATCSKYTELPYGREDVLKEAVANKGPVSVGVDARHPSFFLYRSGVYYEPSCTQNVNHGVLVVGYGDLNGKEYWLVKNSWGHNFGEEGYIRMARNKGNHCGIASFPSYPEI

For the compound `CC(C)C[C@H](NC(=O)c1cc(C(C)(C)C)nn1C)C(=O)NC1(C#N)CC1`, the Ki was roughly 0.008 µM in test [1] (read-out: Ki); 0.00158 µM in test [1] (read-out: pKi (converted)); 0.0794 µM in test [2]; greater than 100 µM in test [3]; roughly 0.008 µM in test [4] (read-out: Ki).

`C[C@H]1C[C@@H](C(=O)NC2(C#N)CC2)N(S(=O)(=O)c2cc(C(F)(F)F)nn2C)C1`: the Ki in test [1] (read-out: pKi (converted)) and in test [3] was greater than 100 µM throughout.

On to `C[C@H]1C[C@@H](C(=O)NC2(C#N)CC2)N(C(=O)c2cc(C(F)(F)F)nn2C)C1`, for which the Ki in test [1] (read-out: pKi (converted)) and in test [3] was greater than 100 µM in each case.

As to `C[C@H]1C[C@@H](C(=O)NC2(C#N)CC2)N(C(=O)c2ccccc2)C1`, the Ki in test [1] (read-out: pKi (converted)) and in test [3] was greater than 100 µM in each case.

As to `C[C@H]1C[C@@H](C(=O)NC2(C#N)CC2)N(C(=O)OC(C)(C)C)C1`, the Ki in test [1] (read-out: pKi (converted)) and in test [3] was greater than 100 µM in each case.

For the compound `C[C@H]1C[C@@H](C(=O)NC2(C#N)CC2)N(C(=O)c2cc(C(C)(C)C)nn2C)C1`, the Ki in test [1] (read-out: pKi (converted)) and in test [3] was greater than 100 µM in each case.

`C[C@H]1C[C@@H](C(=O)NC2(C#N)CC2)N(C(=O)Cc2ccccc2)C1`: the Ki in test [1] (read-out: pKi (converted)) and in test [3] was greater than 100 µM each time.

`CC(C)(F)C[C@H](N[C@@H](c1ccc(-c2ccc(S(C)(=O)=O)cc2)cc1)C(F)(F)F)C(=O)NC1(C#N)CC1` [ODANACATIB]: the Ki in test [4] (read-out: pKi (converted)) was 0.0002 µM.
